Assay results from patent US8008303B2, “Biphenyl derivatives and their use in treating hepatitis C” (AstraZeneca AB, priority 2005, dated 2011).

Columns and labels:
[1] = system: HCV replicon cells Huh 9B; assay: HCV replicon assay (luciferase readout); type: cell-based; details: Hepatitis C virus, 72 h, concentration reducing replicon level (luciferase activity) by 50% vs untreated cell control; 72 h incubation
Procedure, shortened: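 Compounds, made up at twice final strength (final DMSO 1%), were added to subgenomic replicon cells one day after plating. Incubation then ran 72 h at 37 °C, 5% CO2, without G418. Replication was quantified as firefly luciferase luminescence in lysed cells, with cytotoxicity assessed on a duplicate clear plate.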

[2] = system: HCV replicon cells Huh 9B; type: cell-based; details: concentration reducing total cell area by 50% relative to DMSO controls; methylene blue, absorbance 620 nm; 72 h incubation

| Compound | IC50 [1] | TD50 [2] |
| --- | --- | --- |
| Cc1ccc(NC(=O)c2ccc(F)cc2)cc1-c1ccc(C(=O)Nc2ccc(CN3CCS(=O)(=O)CC3)cc2)cc1 [Example 159, 5′-(4-Fluoro-benzoylamino)-2′-methyl-biphenyl-4-carboxylic acid [4-(1,1-dioxo-1lambda*6*-thiomorpholin-4-ylmethyl)-phenyl]-amide] | < 1000 nM | * (* < 50 μM) |
| Cc1ccc(C(=O)Nc2ccc(C)c(-c3ccc(C(=O)Nc4ccc(CN5CCS(=O)(=O)CC5)cc4)cc3)c2)cc1 [Example 160, 2′-Methyl-5′-(4-methyl-benzoylamino)-biphenyl-4-carboxylic acid [4-(1,1-dioxo-1lambda*6*-thiomorpholin-4-ylmethyl)-phenyl]-amide] | < 1000 nM | * (* < 50 μM) |
| Cc1ccc(NC(=O)c2ccc(CN3CCS(=O)(=O)CC3)cc2)cc1-c1ccc(C(=O)Nc2ccc(CN3CCS(=O)(=O)CC3)cc2)cc1 [Example 161, 5′-[4-(1,1-Dioxo-1lambda*6*-thiomorpholin-4-ylmethyl)-benzoylamino]-2′-methyl-biphenyl-4-carboxylic acid [4-(1,1-dioxo-1lambda*6*-thiomorpholin-4-ylmethyl)-phenyl]-amide] | 1000 to 5000 nM | * (* < 50 μM) |
| Cc1ccc(NC(=O)c2ccc(CN3CCS(=O)(=O)CC3)cc2)cc1-c1ccc(C(=O)NCc2cccc(Cl)c2)cc1 [Example 162, 5′-[4-(1,1-Dioxo-1lambda*6*-thiomorpholin-4-ylmethyl)-benzoylamino]-2′-methyl-biphenyl-4-carboxylic acid 3-chloro-benzylamide] | 1000 to 5000 nM | * (* < 50 μM) |
| Cc1ccc(NC(=O)CCC2CCCCC2)cc1-c1ccc(C(=O)Nc2ccc(CN3CCS(=O)(=O)CC3)cc2)cc1 [Example 163, 5′-(3-Cyclohexyl-propionylamino)-2′-methyl-biphenyl-4-carboxylic acid [4-(1,1-dioxo-1lambda*6*-thiomorpholin-4-ylmethyl)-phenyl]-amide] | < 1000 nM | * (* < 50 μM) |
| Cc1ccc(NC(=O)C2CCCCCC2)cc1-c1ccc(C(=O)Nc2ccc(CN3CCS(=O)(=O)CC3)cc2)cc1 [Example 164, 5′-(Cycloheptanecarbonyl-amino)-2′-methyl-biphenyl-4-carboxylic acid [4-(1,1-dioxo-1lambda*6*-thiomorpholin-4-ylmethyl)-phenyl]-amide] | < 1000 nM | * (* < 50 μM) |
| Cc1ccc(NC(=O)CC2CCCCC2)cc1-c1ccc(C(=O)Nc2ccc(CN3CCS(=O)(=O)CC3)cc2)cc1 [Example 165, 5′-(2-Cyclohexyl-acetylamino)-2′-methyl-biphenyl-4-carboxylic acid [4-(1,1-dioxo-1lambda*6*-thiomorpholin-4-ylmethyl)-phenyl]-amide] | < 1000 nM | * (* < 50 μM) |
| Cc1ccc(NC(=O)CC2CCCC2)cc1-c1ccc(C(=O)Nc2ccc(CN3CCS(=O)(=O)CC3)cc2)cc1 [Example 166, 5′-(2-Cyclopentyl-acetylamino)-2′-methyl-biphenyl-4-carboxylic acid [4-(1,1-dioxo-1lambda*6*-thiomorpholin-4-ylmethyl)-phenyl]-amide] | < 1000 nM | * (* < 50 μM) |
| Cc1ccc(NC(=O)C2CCCC2)cc1-c1ccc(C(=O)Nc2ccc(CN3CCS(=O)(=O)CC3)cc2)cc1 [Example 167, 5′-(Cyclopentanecarbonyl-amino)-2′-methyl-biphenyl-4-carboxylic acid [4-(1,1-dioxo-1lambda*6*-thiomorpholin-4-ylmethyl)-phenyl]-amide] | < 1000 nM | * (* < 50 μM) |
| O=C(Nc1ccc(CN2CCS(=O)(=O)CC2)cc1)c1ccc(-c2cccc(NC(=O)C3CC3)c2)cc1 [Example 168, 3′-(Cyclopropanecarbonyl-amino)-biphenyl-4-carboxylic acid [4-(1,1-dioxo-1lambda*6*-thiomorpholin-4-ylmethyl)-phenyl]-amide] | < 1000 nM | * (* < 50 μM) |
| O=C(Nc1ccc(CN2CCS(=O)(=O)CC2)cc1)c1ccc(-c2cccc(NC(=O)C3CCC3)c2)cc1 [Example 169, 3′-(Cyclobutanecarbonyl-amino)-biphenyl-4-carboxylic acid [4-(1,1-dioxo-1lambda*6*-thiomorpholin-4-ylmethyl)-phenyl]-amide] | < 1000 nM | * (* < 50 μM) |
| Cc1ccc(NC(=O)C2CCOCC2)cc1-c1ccc(C(=O)Nc2ccc(CN3CCS(=O)(=O)CC3)cc2)cc1 [Example 170, Tetrahydro-pyran-4-carboxylic acid {4′-[4-(1,1-dioxo-1lambda*6*-thiomorpholin-4-ylmethyl)-phenylcarbamoyl]-6-methyl-biphenyl-3-yl}-amide] | < 1000 nM | * (* < 50 μM) |
| Cc1ccc(NC(=O)CC2CCOCC2)cc1-c1ccc(C(=O)Nc2ccc(CN3CCS(=O)(=O)CC3)cc2)cc1 [Example 171, 2′-Methyl-5′-(2-tetrahydro-pyran-4-yl-acetylamino)-biphenyl-4-carboxylic acid [4-(1,1-dioxo-1lambda*6*-thiomorpholin-4-ylmethyl)-phenyl]-amide] | < 1000 nM | * (* < 50 μM) |
| Cc1ccc(-c2ccc(C(=O)Nc3ccc(CN4CCS(=O)(=O)CC4)cc3)cc2C)cc1NC(=O)C1CC1 [Example 172, 3′-(Cyclopropanecarbonyl-amino)-2,4′-dimethyl-biphenyl-4-carboxylic acid [4-(1,1-dioxo-1lambda*6*-thiomorpholin-4-ylmethyl)-phenyl]-amide] | 1000 to 5000 nM | * (* < 50 μM) |
| Cc1ccc(NC(=O)C2(C(F)(F)F)CC2)cc1-c1ccc(C(=O)Nc2ccc(CN3CCS(=O)(=O)CC3)cc2)cc1 [Example 173, 2′-Methyl-5′-[(1-trifluoromethyl-cyclopropanecarbonyl)-amino]-biphenyl-4-carboxylic acid [4-(1,1-dioxo-1lambda*6*-thiomorpholin-4-ylmethyl)-phenyl]-amide] | 1000 to 5000 nM | * (* < 50 μM) |
| Cc1ccc(NC(=O)C2(C#N)CC2)cc1-c1ccc(C(=O)Nc2ccc(CN3CCS(=O)(=O)CC3)cc2)cc1 [Example 174, 5′-[(1-Cyano-cyclopropanecarbonyl)-amino]-2′-methyl-biphenyl-4-carboxylic acid [4-(1,1-dioxo-1lambda*6*-thiomorpholin-4-ylmethyl)-phenyl]-amide] | 1000 to 5000 nM | * (* < 50 μM) |
| Cc1ccc(NC(=O)C2(C)CC2)cc1-c1ccc(C(=O)Nc2ccc(CN3CCS(=O)(=O)CC3)cc2)cc1 [Example 175, 2′-Methyl-5′-[(1-methyl-cyclopropanecarbonyl)-amino]-biphenyl-4-carboxylic acid [4-(1,1-dioxo-1lambda*6*-thiomorpholin-4-ylmethyl)-phenyl]-amide] | < 1000 nM | * (* < 50 μM) |
| Cc1ccc(NC(=O)c2cscn2)cc1-c1ccc(C(=O)Nc2ccc(CN3CCS(=O)(=O)CC3)cc2)cc1 [Example 177, Thiazole-4-carboxylic acid {4′-[4-(1,1-dioxo-1lambda*6*-thiomorpholin-4-ylmethyl)-phenylcarbamoyl]-6-methyl-biphenyl-3-yl}-amide] | 1000 to 5000 nM | * (* < 50 μM) |
| Cc1ccc(NC(=O)CC2CC2)cc1-c1ccc(C(=O)Nc2ccc(CN3CCS(=O)(=O)CC3)cc2)cc1 [Example 178, 5′-(2-Cyclopropyl-acetylamino)-2′-methyl-biphenyl-4-carboxylic acid [4-(1,1-dioxo-1lambda*6*-thiomorpholin-4-ylmethyl)-phenyl]-amide] | < 1000 nM | * (* < 50 μM) |
| Cc1ccc(NC(=O)c2cncs2)cc1-c1ccc(C(=O)Nc2ccc(CN3CCS(=O)(=O)CC3)cc2)cc1 [Example 179, Thiazole-5-carboxylic acid {4′-[4-(1,1-dioxo-1lambda*6*-thiomorpholin-4-ylmethyl)-phenylcarbamoyl]-6-methyl-biphenyl-3-yl}-amide] | < 1000 nM | * (* < 50 μM) |
| CC(=O)Nc1ccc(C)c(-c2ccc(C(=O)Nc3ccc(CN4CCS(=O)(=O)CC4)cc3)cc2)c1 [Example 180, 5′-Acetylamino-2′-methyl-biphenyl-4-carboxylic acid [4-(1,1-dioxo-1lambda*6*-thiomorpholin-4-ylmethyl)-phenyl]-amide] | < 1000 nM | * (* < 50 μM) |
| CCC(CC)C(=O)Nc1ccc(C)c(-c2ccc(C(=O)Nc3ccc(CN4CCS(=O)(=O)CC4)cc3)cc2)c1 [Example 181, 5′-(2-Ethyl-butyrylamino)-2′-methyl-biphenyl-4-carboxylic acid [4-(1,1-dioxo-1lambda*6*-thiomorpholin-4-ylmethyl)-phenyl]-amide] | < 1000 nM | * (* < 50 μM) |
| CCCC(=O)Nc1ccc(C)c(-c2ccc(C(=O)Nc3ccc(CN4CCS(=O)(=O)CC4)cc3)cc2)c1 [Example 182, 5′-Butyrylamino-2′-methyl-biphenyl-4-carboxylic acid [4-(1,1-dioxo-1lambda*6*-thiomorpholin-4-ylmethyl)-phenyl]-amide] | < 1000 nM | * (* < 50 μM) |
| Cc1ccc(NC(=O)C(C)C)cc1-c1ccc(C(=O)Nc2ccc(CN3CCS(=O)(=O)CC3)cc2)cc1 [Example 183, 5′-Isobutyrylamino-2′-methyl-biphenyl-4-carboxylic acid [4-(1,1-dioxo-1lambda*6*-thiomorpholin-4-ylmethyl)-phenyl]-amide] | < 1000 nM | * (* < 50 μM) |
| Cc1ccc(NC(=O)C(C)(C)C)cc1-c1ccc(C(=O)Nc2ccc(CN3CCS(=O)(=O)CC3)cc2)cc1 [Example 184, 5′-(2,2-Dimethyl-propionylamino)-2′-methyl-biphenyl-4-carboxylic acid [4-(1,1-dioxo-1lambda*6*-thiomorpholin-4-ylmethyl)-phenyl]-amide] | < 1000 nM | * (* < 50 μM) |
